Measurements from ChEMBL document CHEMBL5335767, “Synthesis and study of new siderophore analog-ciprofloxacin conjugates with antibiotic activities against Pseudomonas aeruginosa and Burkholderia spp” (Eur J Med Chem, 2023).
Values after ≈ are worked out from the molar mass of the structure shown.

What was measured:
Pseudomonas aeruginosa [1] = assay: Antibacterial activity against Pseudomonas aeruginosa PAD07 under 1 uM FeCl3 medium by CLSI protocol based microdilution method; assay type: functional
[2] = system: Burkholderia thailandensis; assay: Antibacterial activity against Burkholderia thailandensis E264 under muller hinton medium by CLSI protocol based microdilution method; assay type: functional
[3] = system: Burkholderia pseudomallei; assay: Antibacterial activity against Burkholderia pseudomallei BPS2020IRBA002 under muller hinton medium by CLSI protocol based microdilution method; assay type: functional
[4] = system: Burkholderia pseudomallei; assay: Antibacterial activity against Burkholderia pseudomallei BPS2020IRBA002 under 1 uM FeCl3 medium by CLSI protocol based microdilution method; assay type: functional
Pseudomonas aeruginosa [5] = assay: Antibacterial activity against Pseudomonas aeruginosa PAO1 under muller hinton medium by CLSI protocol based microdilution method; assay type: functional
[6] = system: Burkholderia pseudomallei; assay: Antibacterial activity against Burkholderia pseudomallei BPS2020IRBA001 under succinate minimum medium by CLSI protocol based microdilution method; assay type: functional
[7] = system: Burkholderia pseudomallei; assay: Antibacterial activity against Burkholderia pseudomallei BPS2020IRBA001 under muller hinton medium by CLSI protocol based microdilution method; assay type: functional
[8] = system: Burkholderia pseudomallei; assay: Antibacterial activity against Burkholderia pseudomallei BPS2020IRBA003 under succinate minimum medium by CLSI protocol based microdilution method; assay type: functional
[9] = Antibacterial activity against Burkholderia pseudomallei BPS2020IRBA005 under 1 uM FeCl3 medium by CLSI protocol based microdilution method; assay type: functional; settings: Burkholderia thailandensis
[10] = system: Burkholderia pseudomallei; assay: Antibacterial activity against Burkholderia pseudomallei BPS2020IRBA002 under succinate minimum medium by CLSI protocol based microdilution method; assay type: functional
Lipid bilayer = assay: Binding affinity to bacterial inner membrane mimic PE/PG/CL/PC (60:20:10:10) assessed as maximum insertion pressure
[11] = system: Burkholderia thailandensis; assay: Antibacterial activity against Burkholderia thailandensis E264TS32C10 under succinate minimum medium by CLSI protocol based microdilution method; assay type: functional
[12] = system: Burkholderia pseudomallei; assay: Antibacterial activity against Burkholderia pseudomallei BPS2020IRBA005 under succinate minimum medium by CLSI protocol based microdilution method; assay type: functional
[13] = system: Burkholderia thailandensis; assay: Antibacterial activity against Burkholderia thailandensis E264TS32C47 under 1 uM FeCl3 medium by CLSI protocol based microdilution method; assay type: functional
Pseudomonas aeruginosa [14] = assay: Antibacterial activity against Pseudomonas aeruginosa PAO1 under 1 uM FeCl3 medium by CLSI protocol based microdilution method; assay type: functional
Pseudomonas aeruginosa [15] = assay: Antibacterial activity against Pseudomonas aeruginosa PAD07 under succinate minimum medium by CLSI protocol based microdilution method; assay type: functional
[16] = system: Burkholderia thailandensis; assay: Antibacterial activity against Burkholderia thailandensis E264TS32C12 under muller hinton medium by CLSI protocol based microdilution method; assay type: functional
[17] = system: Burkholderia pseudomallei; assay: Antibacterial activity against Burkholderia pseudomallei BPS2020IRBA005 under muller hinton medium by CLSI protocol based microdilution method; assay type: functional
Pseudomonas aeruginosa [18] = assay: Antibacterial activity against Pseudomonas aeruginosa AM85 under succinate minimum medium by CLSI protocol based microdilution method; assay type: functional
[19] = system: Burkholderia pseudomallei; assay: Antibacterial activity against Burkholderia pseudomallei K96243 under succinate minimum medium by CLSI protocol based microdilution method; assay type: functional
[20] = system: Burkholderia thailandensis; assay: Antibacterial activity against Burkholderia thailandensis E264TS32C47 under succinate minimum medium by CLSI protocol based microdilution method; assay type: functional
[21] = system: Burkholderia pseudomallei; assay: Antibacterial activity against Burkholderia pseudomallei K96243 under muller hinton medium by CLSI protocol based microdilution method; assay type: functional
[22] = system: Burkholderia thailandensis; assay: Antibacterial activity against Burkholderia thailandensis E264TS32C10 under muller hinton medium by CLSI protocol based microdilution method; assay type: functional
[23] = system: Burkholderia pseudomallei; assay: Antibacterial activity against Burkholderia pseudomallei BPS2020IRBA001 under 1 uM FeCl3 medium by CLSI protocol based microdilution method; assay type: functional
Pseudomonas aeruginosa [24] = assay: Antibacterial activity against Pseudomonas aeruginosa PAO1 under succinate minimum medium by CLSI protocol based microdilution method; assay type: functional
[25] = system: Burkholderia thailandensis; assay: Antibacterial activity against Burkholderia thailandensis E264TS32C10 under 1 uM FeCl3 medium by CLSI protocol based microdilution method; assay type: functional
[26] = system: Burkholderia thailandensis; assay: Antibacterial activity against Burkholderia thailandensis E264TS32C12 under succinate minimum medium by CLSI protocol based microdilution method; assay type: functional
Pseudomonas aeruginosa [27] = assay: Antibacterial activity against Pseudomonas aeruginosa PAD07 under muller hinton medium by CLSI protocol based microdilution method; assay type: functional
[28] = system: Burkholderia thailandensis; assay: Antibacterial activity against Burkholderia thailandensis E264TS32C47 under muller hinton medium by CLSI protocol based microdilution method; assay type: functional
[29] = system: Burkholderia pseudomallei; assay: Antibacterial activity against Burkholderia pseudomallei K96243 under 1 uM FeCl3 medium by CLSI protocol based microdilution method; assay type: functional
[30] = system: Burkholderia thailandensis; assay: Antibacterial activity against Burkholderia thailandensis E264 under 1 uM FeCl3 medium by CLSI protocol based microdilution method; assay type: functional
[31] = Stability in aqueous solution assessed as half life; assay type: physicochemical
[32] = system: Burkholderia pseudomallei; assay: Antibacterial activity against Burkholderia pseudomallei BPS2020IRBA003 under muller hinton medium by CLSI protocol based microdilution method; assay type: functional
[33] = system: Burkholderia pseudomallei; assay: Antibacterial activity against Burkholderia pseudomallei BPS2020IRBA003 under 1 uM FeCl3 medium by CLSI protocol based microdilution method; assay type: functional
Pseudomonas aeruginosa [34] = assay: Antibacterial activity against Pseudomonas aeruginosa AM85 under 1 uM FeCl3 medium by CLSI protocol based microdilution method; assay type: functional
HepG2 [35] = assay: Cytotoxicity against human HepG2 cells at 28 ug/ml after 48 hrs by CellTiter-Glo luminescent cell viability assay; assay type: toxicity, cell-based; settings: hepg2, 48 h, dose 28 µg/ml
[36] = system: Burkholderia thailandensis; assay: Antibacterial activity against Burkholderia thailandensis E264 under succinate minimum medium by CLSI protocol based microdilution method; assay type: functional
[37] = system: Burkholderia pseudomallei; assay: Antibacterial activity against Burkholderia pseudomallei BPS2020IRBA004 under muller hinton medium by CLSI protocol based microdilution method; assay type: functional
Pseudomonas aeruginosa [38] = assay: Antibacterial activity against Pseudomonas aeruginosa AM85 under muller hinton medium by CLSI protocol based microdilution method; assay type: functional
[39] = system: Burkholderia thailandensis; assay: Antibacterial activity against Burkholderia thailandensis E264TS32C12 under 1 uM FeCl3 medium by CLSI protocol based microdilution method; assay type: functional
[40] = system: Burkholderia pseudomallei; assay: Antibacterial activity against Burkholderia pseudomallei BPS2020IRBA005 under 1 uM FeCl3 medium after 48 hrs by CLSI protocol based microdilution method; assay type: functional
HepG2 [41] = assay: Cytotoxicity against human HepG2 cells at 23 ug/ml after 48 hrs by CellTiter-Glo luminescent cell viability assay; assay type: toxicity, cell-based; settings: hepg2, 48 h, dose 23 µg/ml

| SMILES | MIC (Pseudomonas aeruginosa [1]) [µg/mL] | MIC [2] [µg/mL] | MIC [3] [µg/mL] | MIC [4] [µg/mL] | MIC (Pseudomonas aeruginosa [5]) [µg/mL] | MIC [6] [µg/mL] | MIC [7] [µg/mL] | MIC [10] [µg/mL] | MIC [11] [µg/mL] | MIC [12] [µg/mL] | MIC [13] [µg/mL] | MIC (Pseudomonas aeruginosa [14]) [µg/mL] | MIC (Pseudomonas aeruginosa [15]) [µg/mL] | MIC [16] [µg/mL] | MIC (Pseudomonas aeruginosa [18]) [µg/mL] | MIC [19] [µg/mL] | MIC [20] [µg/mL] | MIC [22] [µg/mL] | MIC (Pseudomonas aeruginosa [24]) [µg/mL] | MIC [25] [µg/mL] | further results |
| --- | --- | --- | --- | --- | --- | --- | --- | --- | --- | --- | --- | --- | --- | --- | --- | --- | --- | --- | --- | --- | --- |
| CC(OC(=O)c1cc(=O)c(O)c[nH]1)OC(=O)N1CCN(c2cc3c(cc2F)c(=O)c(C(=O)O)cn3C2CC2)CC1 (stereo not given) | 0.25 (≈ 0.449 µM) | 4 (≈ 7.19 µM) | 16 (≈ 28.8 µM) | 16 (≈ 28.8 µM) | 1 (≈ 1.8 µM) | 32 (≈ 57.5 µM) | 32 (≈ 57.5 µM) | 16 (≈ 28.8 µM) | 32 (≈ 57.5 µM) | 1 (≈ 1.8 µM) | 4 (≈ 7.19 µM) | 2 (≈ 3.59 µM) | 0.25 (≈ 0.449 µM) | 16 (≈ 28.8 µM) | 64 (≈ 115 µM) | 1 (≈ 1.8 µM) | 8 (≈ 14.4 µM) | 128 (≈ 230 µM) | 2 (≈ 3.59 µM) | 32 (≈ 57.5 µM) | MIC [8]: 2 µg/mL (≈ 3.59 µM); MIC [9]: 2 µg/mL (≈ 3.59 µM); Activity (Lipid bilayer): 29.5 mN/meter; MIC [17]: 16 µg/mL (≈ 28.8 µM); MIC [21]: 1 µg/mL (≈ 1.8 µM); MIC [23]: 32 µg/mL (≈ 57.5 µM); MIC [26]: 16 µg/mL (≈ 28.8 µM); MIC (Pseudomonas aeruginosa [27]): 0.25 µg/mL (≈ 0.449 µM); MIC [28]: 8 µg/mL (≈ 14.4 µM); MIC [29]: 1 µg/mL (≈ 1.8 µM); MIC [30]: 4 µg/mL (≈ 7.19 µM); half-life [31]: 168 h; MIC [32]: 2 µg/mL (≈ 3.59 µM); MIC [33]: 4 µg/mL (≈ 7.19 µM); MIC (Pseudomonas aeruginosa [34]): 64 µg/mL (≈ 115 µM); Activity (HepG2 [35]): Non-Toxic; MIC [36]: 4 µg/mL (≈ 7.19 µM); MIC [37]: 8 µg/mL (≈ 14.4 µM); MIC (Pseudomonas aeruginosa [38]): 32 µg/mL (≈ 57.5 µM); MIC [39]: 8 µg/mL (≈ 14.4 µM) |
| CC(C)(O/N=C(\C(=O)N[C@@H]1C(=O)N2C(C(=O)[O-])=C(C[n+]3ccccc3)CS[C@H]12)c1csc(N)n1)C(=O)O [CEFTAZIDIME] | 1 (≈ 1.83 µM) | 4 (≈ 7.32 µM) | 128 (≈ 234 µM) | > 128 | 1 (≈ 1.83 µM) | 2 (≈ 3.66 µM) | 2 (≈ 3.66 µM) | 64 (≈ 117 µM) | 2 (≈ 3.66 µM) | 8 (≈ 14.6 µM) | 4 (≈ 7.32 µM) | 1 (≈ 1.83 µM) | 0.25 (≈ 0.457 µM) | 4 (≈ 7.32 µM) | 0.25 (≈ 0.457 µM) | 8 (≈ 14.6 µM) | 4 (≈ 7.32 µM) | 1 (≈ 1.83 µM) | 0.25 (≈ 0.457 µM) | 2 (≈ 3.66 µM) | MIC [40]: 8 µg/mL (≈ 14.6 µM); MIC [26]: 8 µg/mL (≈ 14.6 µM); MIC (Pseudomonas aeruginosa [27]): 1 µg/mL (≈ 1.83 µM); MIC [28]: 4 µg/mL (≈ 7.32 µM); MIC [29]: 8 µg/mL (≈ 14.6 µM); MIC [30]: 4 µg/mL (≈ 7.32 µM); MIC [32]: 2 µg/mL (≈ 3.66 µM); MIC (Pseudomonas aeruginosa [34]): 4 µg/mL (≈ 7.32 µM); MIC [36]: 4 µg/mL (≈ 7.32 µM); MIC [37]: 8 µg/mL (≈ 14.6 µM); MIC (Pseudomonas aeruginosa [38]): 4 µg/mL (≈ 7.32 µM); MIC [39]: 8 µg/mL (≈ 14.6 µM) |
| O=C(O)c1cn(C2CC2)c2cc(N3CCN(C(=O)c4cccc(O)c4O)CC3)c(F)cc2c1=O | 8 (≈ 17.1 µM) | 16 (≈ 34.2 µM) | 16 (≈ 34.2 µM) | 16 (≈ 34.2 µM) | 16 (≈ 34.2 µM) | 32 (≈ 68.5 µM) | 32 (≈ 68.5 µM) | 8 (≈ 17.1 µM) | 32 (≈ 68.5 µM) | 8 (≈ 17.1 µM) | 8 (≈ 17.1 µM) | 32 (≈ 68.5 µM) | 1 (≈ 2.14 µM) | 32 (≈ 68.5 µM) | 128 (≈ 274 µM) | 2 (≈ 4.28 µM) | 8 (≈ 17.1 µM) | 32 (≈ 68.5 µM) | 32 (≈ 68.5 µM) | 32 (≈ 68.5 µM) | MIC [8]: 8 µg/mL (≈ 17.1 µM); MIC [9]: 8 µg/mL (≈ 17.1 µM); MIC [17]: 64 µg/mL (≈ 137 µM); MIC [21]: 8 µg/mL (≈ 17.1 µM); MIC [23]: 32 µg/mL (≈ 68.5 µM); MIC [26]: 16 µg/mL (≈ 34.2 µM); MIC (Pseudomonas aeruginosa [27]): 8 µg/mL (≈ 17.1 µM); MIC [28]: 16 µg/mL (≈ 34.2 µM); MIC [29]: 4 µg/mL (≈ 8.56 µM); Activity (HepG2 [41]): Non-Toxic; MIC [30]: 8 µg/mL (≈ 17.1 µM); MIC [32]: 16 µg/mL (≈ 34.2 µM); MIC [33]: 16 µg/mL (≈ 34.2 µM); MIC (Pseudomonas aeruginosa [34]): > 128 µg/mL; MIC [36]: 8 µg/mL (≈ 17.1 µM); MIC [37]: 32 µg/mL (≈ 68.5 µM); MIC (Pseudomonas aeruginosa [38]): > 128 µg/mL; MIC [39]: 16 µg/mL (≈ 34.2 µM) |
